Usually Kb stands for the affinity of an antagonist, worked out from how it opposes an agonist. A word on the Ki: it is a dissociation constant, usually derived from enzyme kinetics or from competition with a known ligand. Higher therefore signals a looser hold on the target.

Active and inactive are the calls of the source. The rule behind the calls is not given here.

Data on 15 compounds can be found in ChEMBL document CHEMBL4229332, “Novel multi-target azinesulfonamides of cyclic amine derivatives as potential antipsychotics with pro-social and pro-cognitive effects” (Eur J Med Chem, 2018).

In data set [1] the target is 5-hydroxytryptamine receptor 1D (Rattus norvegicus) (UniProt P28565). Description: Antagonist activity at rat 5-HT1DR expressed in CHO cells assessed as inhibition of serotonin-induced response by cellular dielectric spectroscopy. In kind it is functional, cell-based.
Sequence of 5-hydroxytryptamine receptor 1D (Rattus norvegicus) (P28565 whole entry): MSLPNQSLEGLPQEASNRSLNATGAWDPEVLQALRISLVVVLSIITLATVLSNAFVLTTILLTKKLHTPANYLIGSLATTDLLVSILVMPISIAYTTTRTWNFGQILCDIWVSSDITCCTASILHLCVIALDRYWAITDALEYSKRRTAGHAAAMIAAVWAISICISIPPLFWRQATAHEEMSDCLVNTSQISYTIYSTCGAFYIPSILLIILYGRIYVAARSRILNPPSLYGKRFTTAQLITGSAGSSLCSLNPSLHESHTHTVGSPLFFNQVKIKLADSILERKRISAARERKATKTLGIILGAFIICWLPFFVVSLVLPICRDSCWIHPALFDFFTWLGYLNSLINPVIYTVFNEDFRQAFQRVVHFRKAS
Data set [2] in a line: Drug level in Wistar rat brain at 3 mg/kg, ip measured after 15 mins by LC-MS/MS analysis. In kind it is ADME, organism-based. The conditions noted are these: read-out: Drug uptake.
Data set [3] can be described thus: Drug level in Wistar rat plasma at 3 mg/kg, ip measured after 15 mins by LC-MS/MS analysis. The class given is ADME, organism-based.
Data set [4] has as its target 5-hydroxytryptamine receptor 6 (Homo sapiens, UniProt P50406). Description: biochemical.
Description: Displacement of [3H]-LSD from human 5-HT6R expressed in HEK293 cell membranes after 1 hr at 37 degC by microbeta counting method
For data set [5], the target named is T1, 5-hydroxytryptamine receptor 1A (Homo sapiens, UniProt P08908).
T1 sequence (P08908 whole entry): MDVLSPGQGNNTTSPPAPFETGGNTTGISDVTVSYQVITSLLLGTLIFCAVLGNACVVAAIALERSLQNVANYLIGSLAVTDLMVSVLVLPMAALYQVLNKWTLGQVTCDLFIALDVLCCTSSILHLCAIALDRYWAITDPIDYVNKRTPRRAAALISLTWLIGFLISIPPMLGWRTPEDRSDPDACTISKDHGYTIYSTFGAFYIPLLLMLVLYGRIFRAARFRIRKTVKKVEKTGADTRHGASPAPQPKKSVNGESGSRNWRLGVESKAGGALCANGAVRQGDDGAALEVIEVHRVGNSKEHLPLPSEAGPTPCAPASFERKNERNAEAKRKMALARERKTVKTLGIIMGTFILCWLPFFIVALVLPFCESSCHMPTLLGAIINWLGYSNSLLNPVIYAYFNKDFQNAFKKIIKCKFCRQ
Description: biochemical.
Description: Displacement of [3H]-8-OH-DPAT from human 5-HT1AR expressed in HEK293 cell membranes after 1 hr by microbeta counting method

The nature of data set [6]: Ratio of drug level in brain to plasma in Wistar rat at 3 mg/kg, ip measured after 60 mins by LC-MS/MS analysis. The class given is ADME, organism-based. The conditions noted are these: read-out: BPR.
Data set [7] is described as follows: Drug level in Wistar rat brain at 3 mg/kg, ip measured after 60 mins by LC-MS/MS analysis. The class given is ADME, organism-based. The conditions noted are these: read-out: Drug uptake.
Data set [8] is described as follows: Ratio of drug level in brain to plasma in Wistar rat at 3 mg/kg, ip measured after 30 mins by LC-MS/MS analysis. The conditions noted are these: read-out: BPR. The class given is ADME, organism-based.
The target in data set [9] is 5-hydroxytryptamine receptor 2A (Homo sapiens, UniProt P28223). Description: biochemical. The class given is cell-based, CHO-K1.
Sequence of 5-hydroxytryptamine receptor 2A (P28223 whole entry): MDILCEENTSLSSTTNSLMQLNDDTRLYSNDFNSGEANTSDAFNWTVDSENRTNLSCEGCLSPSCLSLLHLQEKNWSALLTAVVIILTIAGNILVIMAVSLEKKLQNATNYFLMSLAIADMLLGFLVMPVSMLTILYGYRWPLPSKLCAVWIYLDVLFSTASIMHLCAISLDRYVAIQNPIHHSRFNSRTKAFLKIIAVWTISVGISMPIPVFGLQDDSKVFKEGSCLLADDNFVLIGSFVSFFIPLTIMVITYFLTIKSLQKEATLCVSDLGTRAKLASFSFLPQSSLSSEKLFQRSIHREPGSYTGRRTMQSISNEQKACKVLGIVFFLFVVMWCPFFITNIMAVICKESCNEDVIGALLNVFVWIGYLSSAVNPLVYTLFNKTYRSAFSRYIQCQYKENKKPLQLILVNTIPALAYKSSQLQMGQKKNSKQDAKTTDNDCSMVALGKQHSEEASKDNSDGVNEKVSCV
Data set [10] in a line: Drug level in Wistar rat plasma at 3 mg/kg, ip measured after 60 mins by LC-MS/MS analysis. The class given is ADME, organism-based.
The nature of data set [11]: Drug level in Wistar rat brain at 3 mg/kg, ip measured after 30 mins by LC-MS/MS analysis. The class given is ADME, organism-based. The conditions noted are these: read-out: Drug uptake.
Data set [12] is described as follows: Drug level in Wistar rat plasma at 3 mg/kg, ip measured after 30 mins by LC-MS/MS analysis. The class given is ADME, organism-based.
The nature of data set [13]: Ratio of drug level in brain to plasma in Wistar rat at 3 mg/kg, ip measured after 15 mins by LC-MS/MS analysis. In kind it is ADME, organism-based. The conditions noted are these: read-out: BPR.
Data set [14] deals with 5-hydroxytryptamine receptor 7 (Homo sapiens, UniProt P34969). Description: biochemical.
Sequence of 5-hydroxytryptamine receptor 7 (P34969 whole entry): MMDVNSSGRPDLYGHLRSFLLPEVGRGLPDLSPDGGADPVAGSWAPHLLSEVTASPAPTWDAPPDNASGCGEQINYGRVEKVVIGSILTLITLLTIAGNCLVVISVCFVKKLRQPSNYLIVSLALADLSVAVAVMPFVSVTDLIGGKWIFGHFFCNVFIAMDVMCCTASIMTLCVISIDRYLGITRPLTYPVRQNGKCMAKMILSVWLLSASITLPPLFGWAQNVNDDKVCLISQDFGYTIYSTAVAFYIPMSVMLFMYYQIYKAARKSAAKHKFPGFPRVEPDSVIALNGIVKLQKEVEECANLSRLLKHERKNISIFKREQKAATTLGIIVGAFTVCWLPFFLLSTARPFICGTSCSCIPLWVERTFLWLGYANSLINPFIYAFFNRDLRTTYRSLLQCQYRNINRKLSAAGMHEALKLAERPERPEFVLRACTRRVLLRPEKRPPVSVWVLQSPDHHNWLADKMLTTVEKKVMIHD
Description: Displacement of [3H]-5-CT from human 5-HT7R expressed in HEK293 cell membranes after 1 hr at 37 degC by microbeta counting method
For data set [15], the target named is T2, Alpha-1A adrenergic receptor (Homo sapiens) (UniProt P35348).
T2 sequence (whole entry): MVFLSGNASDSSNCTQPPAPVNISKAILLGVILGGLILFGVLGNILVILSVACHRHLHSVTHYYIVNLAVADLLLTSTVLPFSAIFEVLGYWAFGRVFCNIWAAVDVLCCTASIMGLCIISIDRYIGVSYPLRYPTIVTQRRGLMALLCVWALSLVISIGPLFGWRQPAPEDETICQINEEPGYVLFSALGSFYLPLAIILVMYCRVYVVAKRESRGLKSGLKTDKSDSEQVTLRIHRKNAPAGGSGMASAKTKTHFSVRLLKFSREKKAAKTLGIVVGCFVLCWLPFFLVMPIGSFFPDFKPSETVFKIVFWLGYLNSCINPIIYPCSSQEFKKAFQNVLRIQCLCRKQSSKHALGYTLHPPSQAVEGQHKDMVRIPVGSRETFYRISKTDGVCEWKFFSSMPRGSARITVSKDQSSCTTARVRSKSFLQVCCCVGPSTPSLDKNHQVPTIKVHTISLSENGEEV
The data set can be described thus: Antagonist activity at human adrenergic alpha1A receptor expressed in CHO cells assessed as inhibition of epinephrine-induced calcium flux by fluorimetric method. In kind it is functional, cell-based. Background: A change in cytosolic calcium serves as a functional read-out for many receptors and channels.

Data set [16] addresses 5-hydroxytryptamine receptor 1B (Cricetulus griseus) (UniProt P46636). Description: Antagonist activity at 5-HT1BR in CHO cells assessed as inhibition of serotonin-induced response. The class given is functional, cell-based.
The nature of data set [17]: Toxicity in ip dosed Sprague-Dawley rat assessed as sedation pretreated for 60 mins followed by PCP addition measured for 30 mins starting 15 min after rat reintroduction to auto-tracks. The class given is organism-based. The conditions noted are these: in vivo.
For data set [18], the system named is Rattus norvegicus. Description: Antipsychotic activity in Sprague-Dawley rat assessed as reduction in PCP-induced hyper-locomotion at 1 to 3 mg/kg, ip pretreated for 60 mins followed by PCP addition measured for 30 mins starting 15 min after rat reintroduction to auto-tracks. The class given is functional, organism-based.
The species named for data set [19] is Rattus norvegicus. Description: animal or person. The conditions noted are these: Sprague-Dawley, ip, read-out: MED.
Description: Antipsychotic activity in ip dosed Sprague-Dawley rat assessed as suppression of avoidance behavior by avoiding foot shock administered 60 mins prior to test by conditioned avoidance response test
Data set [20] deals with Rattus norvegicus. The data set can be described thus: Toxicity in Wistar rat assessed as increase in prolactin level at 3 mg/kg, po after 60 mins by ELISA. The class given is organism-based. The conditions noted are these: in vivo, 1 h.
Data set [21] deals with Rattus norvegicus. The data set can be described thus: Toxicity in Sprague-Dawley rat assessed as induction of catalepsy at 30 mg/kg, ip measured every 30 mins up to 240 mins by bar test. The class given is organism-based. The conditions noted are these: in vivo.
Data set [22] in a line: Effect on failure incidence during conditioned avoidance response test in ip dosed Sprague-Dawley rat administered 60 mins prior to testing. The class given is ADME, organism-based. The conditions noted are these: in vivo.
Data set [23] is filed under the species Rattus norvegicus. Description: animal or person. The conditions noted are these: Sprague-Dawley, ip, read-out: MED. The source holds these as a separate data set.
Description: Reversal of PCP-induced cognitive impairment in ip dosed Sprague-Dawley rat assessed as reduction in time spent exploring novel object over familiar object pretreated for 60 mins followed by PCP addition by novel object recognition assay
The species named for data set [24] is Rattus norvegicus. Description: animal or person. The conditions noted are these: Sprague-Dawley, ip, read-out: MED. This is another data set of the same source.
Description: Antipsychotic activity in ip dosed Sprague-Dawley rat assessed as reduction in PCP-induced hyper-locomotion pretreated for 60 mins followed by PCP addition measured for 30 mins starting 15 min after rat reintroduction to auto-tracks
The test system of data set [25] is Rattus norvegicus. Description: Reversal of ketamine-induced working social withdrawal in Sprague-Dawley rat at 1 mg/kg, ip pretreated for 60 mins followed by ketamine administration. The class given is functional, organism-based.

Sequence of 5-hydroxytryptamine receptor 6 (P50406 whole entry): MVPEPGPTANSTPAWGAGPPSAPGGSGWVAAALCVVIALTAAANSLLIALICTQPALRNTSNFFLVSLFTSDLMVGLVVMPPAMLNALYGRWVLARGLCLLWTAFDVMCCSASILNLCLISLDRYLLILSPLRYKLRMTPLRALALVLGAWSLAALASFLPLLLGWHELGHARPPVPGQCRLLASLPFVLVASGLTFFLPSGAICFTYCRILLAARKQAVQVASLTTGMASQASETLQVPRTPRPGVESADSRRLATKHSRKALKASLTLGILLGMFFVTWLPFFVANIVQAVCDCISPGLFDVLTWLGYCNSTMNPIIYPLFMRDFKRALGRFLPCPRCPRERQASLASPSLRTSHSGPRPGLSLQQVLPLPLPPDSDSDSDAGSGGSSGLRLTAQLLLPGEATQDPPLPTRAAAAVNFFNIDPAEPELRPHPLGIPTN
Sequence of 5-hydroxytryptamine receptor 1B (Cricetulus griseus) (P46636 whole entry): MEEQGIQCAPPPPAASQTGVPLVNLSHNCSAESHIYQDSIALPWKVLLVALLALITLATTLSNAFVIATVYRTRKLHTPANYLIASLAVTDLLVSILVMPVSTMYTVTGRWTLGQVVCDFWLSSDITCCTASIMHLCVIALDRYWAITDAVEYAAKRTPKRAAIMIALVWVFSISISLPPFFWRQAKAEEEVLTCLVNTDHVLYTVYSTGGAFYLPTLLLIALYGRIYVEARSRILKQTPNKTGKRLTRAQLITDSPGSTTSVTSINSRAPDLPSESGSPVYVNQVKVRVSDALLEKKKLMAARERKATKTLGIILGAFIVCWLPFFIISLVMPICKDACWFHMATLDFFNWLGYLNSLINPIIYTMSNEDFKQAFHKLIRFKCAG

On to `CSc1ccc2c(c1)C(N1CCN(C)CC1)Cc1ccccc1S2` (stereo unspecified), for which, in [1], the antagonist equilibrium constant (Kb) was determined as 14 nM.
Regarding `O=S(=O)(c1cccc2cnccc12)N1CCC[C@H]1CCN1CCN(c2nsc3ccccc23)CC1`, the concentration at 0.25 h in data set [2] is 90.1 nM; in data set [3] it was 647 nM. Moreover, the Ki in [4] is 360 nM; in data set [5] it was 37 nM; in data set [9], 18 nM; in [14] it was 12 nM. In data set [6], the Kp at 1 h was determined as 0.17. Besides, the concentration at 1 h in [7] was determined as 19.7 nM; in data set [10] it was 117 nM. Also, the Kp at 0.5 h in data set [8] turned out to be 0.19. For the same compound, the concentration at 0.5 h in data set [11] came out at 67.1 nM; in data set [12], 417 nM. Moreover, the Kp at 0.25 h in [13] is 0.15.
For the compound `COc1cccc(OC)c1OCCNCC1COc2ccccc2O1` (stereo unspecified), in [15], the Kb is 0.24 nM.
Turning to `O=S(=O)(c1cccc2cnccc12)N1CCC[C@@H]1CCN1CCN(c2nsc3ccccc23)CC1`, the concentration at 0.25 h in data set [2] came to 114 nM; in [3], 450 nM. Further, the Ki was found to be 40 nM in data set [4], 16 nM in data set [5], 15 nM in data set [9] and 1 nM in data set [14]. The Kp at 1 h in data set [6] is 0.45. Besides, the concentration at 1 h worked out at 35.5 nM in data set [7] and 79.2 nM in data set [10]. Further, in data set [8], the Kp at 0.5 h turned out to be 0.21. Besides, the values for the concentration at 0.5 h in data set [11] and in [12] were 81.9 nM and 389 nM, respectively. The Kp at 0.25 h in data set [13] worked out at 0.28.
`COc1ccc(NC(=O)c2ccc(-c3ccc(-c4noc(C)n4)cc3C)cc2)cc1N1CCN(C)CC1`: the Kb in [16] was determined as 0.065 nM.
As for `O=S(=O)(c1ccnc2ccccc12)N1CCCCC[C@H]1CCN1CCN(c2nsc3ccccc23)CC1`, the Ki in data set [4] is 623 nM; in data set [5] it was 50 nM; in data set [9], 26 nM; in data set [14], 19 nM.
As for `O=S(=O)(c1cccc2ncccc12)N1CCC[C@H]1CCN1CCN(c2cccc3c2OCCO3)CC1`, the Ki in data set [4] turned out to be 2530 nM; in data set [5], 6 nM; in data set [9] it was 110 nM; in [14], 349 nM.
In the case of `O=S(=O)(c1cncc2ccccc12)N1CCC[C@@H]1CCN1CCN(c2cccc3[nH]ccc23)CC1`, the Ki in data set [4] was 766 nM; in data set [5], 6 nM; in data set [9] it was 76 nM; in data set [14], 4 nM.
As to `O=S(=O)(c1cccc2ncccc12)N1CCC[C@H]1CCN1CCN(c2cccc3[nH]ccc23)CC1`, the Ki in [4] came to 2310 nM; in [5], 14 nM; in data set [9] it was 244 nM; in data set [14], 165 nM.
The matching figures for `O=S(=O)(c1cccc2ncccc12)N1CCC[C@H]1CCN1CCC(c2noc3cc(F)ccc23)CC1`: 169 nM, 147 nM, 12 nM and 12 nM.
For the compound `O=S(=O)(c1cncc2ccccc12)N1CCC[C@@H]1CCN1CCN(c2nsc3ccccc23)CC1`, the concentration at 0.25 h in data set [2] was 218 nM; in data set [3], 472 nM. The Ki in data set [4] came out at 40 nM; in [5] it was 14 nM; in data set [9] it was 10 nM; in data set [14], 3 nM. In data set [6], the Kp at 1 h came to 1. Also, the concentration at 1 h in [7] was found to be 123 nM; in data set [10], 125 nM. Further, the Kp at 0.5 h in data set [8] turned out to be 0.65. Moreover, in data set [17], the MTD at 0.5 h worked out at 2 mg/kg. The concentration at 0.5 h in data set [11] was determined as 242 nM; in [12], 376 nM. Moreover, the Kp at 0.25 h in data set [13] is 0.48. Besides, the result in the data set on Rattus norvegicus [18] was inactive.
`O=S(=O)(c1cccc2cnccc12)N1CCC[C@H]1CCN1CCN(c2cccc3sccc23)CC1`: the Ki in [4] came to 72 nM; in [5], 10 nM; in [9], 9 nM; in data set [14], 23 nM.
For the compound `O=C1Cc2cc(CCN3CCN(c4nsc5ccccc45)CC3)c(Cl)cc2N1` [ZIPRASIDONE], the values for the Ki in data set [4] and in [5] were 20 nM and 2 nM, respectively. The minimal effective dose in the data set filed under Rattus norvegicus [19], in the data set listed under Rattus norvegicus [23] and in the data set listed under Rattus norvegicus [24] was 1 mg/kg throughout. The MTD at 0.5 h in data set [17] amounted to 3 mg/kg. Further, the Activity entry with Rattus norvegicus [20] was “Toxic”; with Rattus norvegicus [21], “Non-Toxic”. This compound also displayed an MTD at 1 h in data set [22] of 2 mg/kg. Besides, the outcome in the data set with Rattus norvegicus [25] was inactive.
Turning to `O=S(=O)(c1cncc2ccccc12)N1CC[C@@H]1CCN1CCN(c2cccc3sccc23)CC1`, the Ki was 104 nM in [4], 16 nM in [5], 16 nM in data set [9] and 31 nM in [14].
As for `O=S(=O)(c1cccc2ncccc12)N1CC[C@@H]1CCN1CCN(c2cccc3sccc23)CC1`, the Ki in data set [4] amounted to 130 nM; in [5], 9 nM; in [9], 7 nM; in [14], 45 nM.
